Measured values: ChEMBL document CHEMBL1130608, “Synthesis and anticancer evaluation of certain gamma-aryloxymethyl-alpha-methylene-gamma-phenyl-gamma-butyrolactones” (1998)

Tests used:
[1] = tested on: RPMI-8226; experiment: In vitro anticancer activity against RPMI-8226 Leukemia cancer cell line; format: functional; details: Homo sapiens
[2] = tested on: DU-145; experiment: In vitro anticancer activity against DU-145 prostate cancer cell line; format: functional; details: Homo sapiens
[3] = tested on: TK-10; experiment: In vitro anticancer activity against TK-10 renal cancer cell line; format: functional; details: Homo sapiens
[4] = tested on: COLO 205; experiment: In vitro anticancer activity against COLO 205 colon cancer cell line; format: functional; details: Homo sapiens
[5] = tested on: U-251; experiment: In vitro anticancer activity against U-251 CNS cancer cell line; format: functional; details: Homo sapiens
[6] = Ratio of the least sensitive cell to the most sensitive cell; format: functional
[7] = tested on: SW-620; experiment: In vitro anticancer activity against SW-620 colon cancer cell line; format: functional; details: Homo sapiens
[8] = tested on: Malme-3M; experiment: In vitro anticancer activity against MALME-3M melanoma cancer cell line; format: functional; details: Homo sapiens
[9] = tested on: ACHN; experiment: In vitro anticancer activity against ACHN renal cancer cell line; format: functional; details: Homo sapiens
[10] = tested on: IGROV-1; experiment: In vitro anticancer activity against IGROV1 ovarian cancer cell line; format: functional; details: Homo sapiens
[11] = tested on: SR; experiment: In vitro anticancer activity against SR Leukemia cancer cell line; format: functional; details: Homo sapiens
[12] = tested on: NCI-H322M; experiment: In vitro anticancer activity against NCI-H322M non-small cell lung cancer cell line; format: functional; details: Homo sapiens
[13] = tested on: SK-OV-3; experiment: In vitro anticancer activity against SK-OV-3 ovarian cancer cell line; format: functional; details: Homo sapiens
[14] = tested on: Hs-578T; experiment: In vitro anticancer activity against Hs 578.T breast cancer cell line; format: functional; details: Homo sapiens
[15] = tested on: SNB-19; experiment: In vitro anticancer activity against SNB-19 CNS cancer cell line; format: functional; details: Homo sapiens
[16] = tested on: LOX IMVI; experiment: In vitro anticancer activity against LOX IMVI melanoma cancer cell line; Most sensitive cell; format: functional; details: Homo sapiens
[17] = tested on: MDA-MB-435; experiment: In vitro anticancer activity against MDA-MB-435 breast cancer cell line; format: functional; details: Homo sapiens
[18] = tested on: HOP-62; experiment: In vitro anticancer activity against HOP-62 non-smallcell lung cancer cell line; Least sensitive cell; format: functional; details: Homo sapiens
[19] = tested on: PC-3; experiment: In vitro anticancer activity against PC-3 prostate cancer cell line; format: functional; details: Homo sapiens
[20] = tested on: SR; experiment: In vitro anticancer activity against SR leukemia cancer cell line; Most sensitive cell; format: functional; details: Homo sapiens
[21] = tested on: RPMI-8226; experiment: In vitro anticancer activity against RPMI-8226 leukemia cancer cell line; format: functional; details: Homo sapiens
[22] = tested on: LOX IMVI; experiment: In vitro anticancer activity against LOX IMVI melanoma cancer cell line; format: functional; details: Homo sapiens
[23] = tested on: NCI-H322M; experiment: In vitro anticancer activity against NCI-H322M non-small cell lung cancer cell line; Least sensitive cell; format: functional; details: Homo sapiens
[24] = tested on: HOP-62; experiment: In vitro anticancer activity against HOP-62 non-small cell lung cancer cell line; format: functional; details: Homo sapiens
[25] = tested on: SNB-19; experiment: In vitro anticancer activity against SNB-19 CNS cancer cell line; Leaset sensitive cell; format: functional; details: Homo sapiens
[26] = tested on: HOP-62; experiment: In vitro anticancer activity against HOP-62 non-smallcell lung cancer cell line; format: functional; details: Homo sapiens
[27] = tested on: RPMI-8226; experiment: In vitro anticancer activity against RPMI-8226 Leukemia cancer cell line; Most sensitive cell; format: functional; details: Homo sapiens
[28] = tested on: Panel leukemia (Carcinoma cell lines); experiment: Compound was evaluated for in vitro anticancer activity against leukemia cell lines; format: functional, cell-based
[29] = tested on: SNB-19; experiment: In vitro anticancer activity against SNB-19 CNS cancer cell line; Least sensitive cell; format: functional; details: Homo sapiens
[30] = tested on: SR; experiment: In vitro anticancer activity against SR leukemia cancer cell line; format: functional; details: Homo sapiens
[31] = tested on: RPMI-8226; experiment: In vitro anticancer activity against RPMI-8226 leukemia cancer cell line; Most sensitive cell; format: functional; details: Homo sapiens
[32] = tested on: U-251; experiment: In vitro anticancer activity against U-251 CNS cancer cell line; Least sensitive cell; format: functional; details: Homo sapiens

Molecule	GI50 [2]	GI50 [4]	GI50 [5]	GI50 [7]	GI50 [9]	GI50 [12]	GI50 [13]	GI50 [17]	GI50 [19]	GI50 [3]	Ratio [6]	GI50 [8]	GI50 [10]	GI50 [11]	GI50 [14]	GI50 [15]	GI50 [22]	GI50 [26]	further results
C=C1CC(COc2ccc3ccccc3c2)(c2ccccc2)OC1=O (stereo not given)	12000 nM	1950 nM	2820 nM	1910 nM	4370 nM	12900 nM	7590 nM	2880 nM	6460 nM	2880 nM	1.1	3390 nM	1550 nM	3310 nM	3890 nM	10500 nM			GI50 [1]: 2240 nM; GI50 [16]: 1450 nM; GI50 [18]: 18200 nM
CARBOPLATIN																			GI50 [28]: 107000 nM
C=C1CC(COc2ccccc2)(c2ccccc2)OC1=O (stereo not given)	15100 nM	1740 nM		1950 nM	1740 nM	15500 nM		7410 nM	2140 nM	3160 nM	1.06	10500 nM	14100 nM	3240 nM	11700 nM	11200 nM		14800 nM	GI50 [1]: 1950 nM; GI50 [32]: 17400 nM; GI50 [16]: 1510 nM
CISPLATIN																			GI50 [28]: 4470 nM

Continued, in another order:

GI50 [2]	GI50 [4]	GI50 [5]	GI50 [7]	GI50 [9]	GI50 [12]	GI50 [13]	GI50 [17]	GI50 [19]	Molecule	GI50 [3]	Ratio [6]	GI50 [8]	GI50 [10]	GI50 [11]	GI50 [14]	GI50 [15]	GI50 [22]	GI50 [26]	further results
11200 nM	3160 nM	3550 nM	1550 nM	4370 nM		7410 nM	1740 nM	4070 nM	C=C1CC(COc2cccc3ccccc23)(c2ccccc2)OC1=O (stereo not given)	10500 nM	1.84	2880 nM	1620 nM		6920 nM	7760 nM	1350 nM		GI50 [20]: 229 nM; GI50 [21]: 2290 nM; GI50 [23]: 15800 nM; GI50 [24]: 15500 nM
11200 nM	1780 nM	1820 nM	1860 nM	1510 nM	8510 nM	7080 nM	2000 nM	3090 nM	C=C1CC(COc2ccc3cccc(O)c3n2)(c2ccccc2)OC1=O (stereo not given)	7080 nM	3.01	1700 nM	1660 nM	724 nM	2290 nM		1290 nM	2140 nM	GI50 [25]: 14500 nM; GI50 [27]: 14.1 nM
5620 nM	2240 nM	1780 nM	1480 nM	1580 nM	12000 nM	6760 nM	3020 nM	2950 nM	C=C1CC(COc2cccc3ccc(C)nc23)(c2ccccc2)OC1=O (stereo not given)	2090 nM	3.23	1700 nM	1780 nM	776 nM	2000 nM		1450 nM	3240 nM	GI50 [29]: 17000 nM; GI50 [27]: 10 nM
3800 nM	1510 nM	2140 nM	1070 nM	1620 nM		9330 nM	2140 nM	1580 nM	C=C1CC(COc2cccc3cccnc23)(c2ccccc2)OC1=O (stereo not given)	1660 nM	2.87	1510 nM	1550 nM		1480 nM	12000 nM	1350 nM	5130 nM	GI50 [30]: 245 nM; GI50 [31]: 19.9 nM; GI50 [23]: 14800 nM
